From patent publication US3956068A, “Antibiotic G-52 and method for the production thereof” (Schering Corporation, priority 1975, dated 1976)
Where a name gives a salt, the structure may show the parent alone.

What was measured:
[1] = tested on: Staphylococcus aureus A.T.C.C. 6538P; test: Microbiological assay, standard disc plate assay; format: cell-based; conditions: against the standard antibiotic base (1000 mcg/mg)
Text: 6538P as the test organism.

[2] = tested on: Staphylococcus aureus Gray; test: In vivo protective activity in mice; set-up: species or system Mice (Carworth Farms CF-1); conditions: S.C., single dose of antibiotic (sulfate) 1 hour after intraperitoneal infection, survivors at 48 hours
Description: (§1) In vivo Activity of Antibiotic G-52 in Mice
(§2) ^a Mice (Carworth Farms CF-1 weighing about 18 - 20 grams) are treate
(§3) with a single dose of antibiotic (sulfate) one (1) hour after an
(§4) intraperitoneal infection with a lethal (10^7 organisms) quantity of
(§5) the infectious organism. The number of survivors are determined 48 hours
(§6) after infection and the data analyzed by standard probit procedures to
(§7) determine the PD50 values with 95% confidence limits.

Escherichia coli = test: In vivo protective activity in mice; set-up: species or system Mice (Carworth Farms CF-1); conditions: S.C., single dose of antibiotic (sulfate) 1 hour after intraperitoneal infection, survivors at 48 hours
Description: as §1, §2, §3, §4, §5, §6, §7

Pseudomonas aeruginosa = test: In vivo protective activity in mice; set-up: species or system Mice (Carworth Farms CF-1); conditions: S.C., single dose of antibiotic (sulfate) 1 hour after intraperitoneal infection, survivors at 48 hours
Description: as §1, §2, §3, §4, §5, §6, §7

[3] = Stability to boiling in buffer; format: physicochemical
Text: Further, the antibiotic is stable to boiling for at least thirty (30) minutes in MacIlvaines buffer from pH 2 - 8 and in sodium hydroxide-boric acid buffer from pH 8 - 10.

mice (CF-1) = test: Acute toxicity in mice; format: in vivo; conditions: sulfate salt
Description: ^b The acute toxicity of Antibiotic G-52 in the form of the sulfate
salt is determined in the standard manner by administration of the
antibiotic to mice (CF-1) intravenously, subcutaneously and
intraperitoneally. The results are analyzed by standard probit procedures
to determine the LD50 values with 95% confidence limits.

Escherichia coli 578 = test: In vitro antibacterial activity, minimum inhibitory concentration; format: cell-based; conditions: Tryptose phosphate broth at pH 7.2
Text: (§8) In vitro Antibacterial Activity
(§9) Minimum Inhibitory Concentration
(§10) Test Medium: Tryptose phosphate broth at pH 7.2.

[4] = tested on: Klebsiella pneumoniae Ad 17 - kR; test: as above; format: cell-based; conditions: Tryptose phosphate broth at pH 7.2
Text: as §8, §9, §10

Proteus mirabilis 8019 = test: as above; format: cell-based; conditions: Tryptose phosphate broth at pH 7.2
Text: as §8, §9, §10

Staphylococcus aureus 45 = test: as above; format: cell-based; conditions: Tryptose phosphate broth at pH 7.2
Text: as §8, §9, §10

Streptococcus pyogenes C = test: as above; format: cell-based; conditions: Tryptose phosphate broth at pH 7.2
Text: as §8, §9, §10

[5] = tested on: Staphylococcus aureus 209P; test: as above; format: cell-based; conditions: Tryptose phosphate broth at pH 7.2
Text: as §8, §9, §10

[6] = tested on: Pseudomonas aeruginosa 236 - GR; test: as above; format: cell-based; conditions: Tryptose phosphate broth at pH 7.2
Text: as §8, §9, §10

[7] = tested on: Salmonella paratyphi 13311; test: as above; format: cell-based; conditions: Tryptose phosphate broth at pH 7.2
Text: as §8, §9, §10

Escherichia coli 11775 = test: as above; format: cell-based; conditions: Tryptose phosphate broth at pH 7.2
Text: as §8, §9, §10

[8] = tested on: Pseudomonas aeruginosa 130 - GR; test: as above; format: cell-based; conditions: Tryptose phosphate broth at pH 7.2
Text: as §8, §9, §10

For `CNCC1=CCC(N)C(OC2C(N)CC(N)C(OC3OCC(C)(O)C(NC)C3O)C2O)O1` (centres unmarked) [Antibiotic G-52 sulfate], the “potency (microbiological assay)” value [1] was “about 675 mcg/mg” and the “potency (microbiological assay)” value ([1]; listed as Antibiotic G-52 Sulfate) was 660 mcg/mg.

With `CNCC1=CC[C@@H](N)[C@@H](O[C@H]2[C@H](O)[C@@H](O[C@H]3OC[C@](C)(O)[C@H](NC)[C@H]3O)[C@H](N)C[C@@H]2N)O1` [Antibiotic G-52] the PD50 [2] was 2.5 mg/kg, the PD50 (Escherichia coli) was 2.5 mg/kg and the PD50 (Pseudomonas aeruginosa) was 1.5 mg/kg. The “potency (microbiological assay)” value ([1]; listed as Antibiotic G-52 Base) was “about 1000 mcg/mg”, the stable to boiling ([3]; MacIlvaines buffer, pH 2 - 8) was no less than 30 min and the stable to boiling ([3]; sodium hydroxide-boric acid buffer, pH 8 - 10) was no less than 30 min. The “solubility in polar organic solvents” value (Solubility; lower alcohols, dimethylformamide, dimethylsulfoxide, pyridine) was “some degree of solubility in most polar organic solvents”, the solubility in water (Solubility; water) was “very soluble in water” and the LD50 (mice (CF-1); I.P.) was 200 mg/kg. For the same molecule, the LD50 (mice (CF-1); I.V.) was 50 mg/kg, the LD50 (mice (CF-1); S.C.) was 400 mg/kg and the “Minimum Inhibitory Concentration (MIC)” value (Escherichia coli 578) was 7.5 mg/L. The “Minimum Inhibitory Concentration (MIC)” value [4] was 0.8 mg/L, the “Minimum Inhibitory Concentration (MIC)” value (Proteus mirabilis 8019) was 7.5 mg/L and the “Minimum Inhibitory Concentration (MIC)” value (Staphylococcus aureus 45) was 0.8 mg/L. The “Minimum Inhibitory Concentration (MIC)” value (Streptococcus pyogenes C) was 25 mg/L, the “Minimum Inhibitory Concentration (MIC)” value [5] was 0.3 mg/L and the “Minimum Inhibitory Concentration (MIC)” value [6] was 25 mg/L. For the same molecule, the “Minimum Inhibitory Concentration (MIC)” value [7] was 17.5 mg/L, the “Minimum Inhibitory Concentration (MIC)” value (Escherichia coli 11775) was 3.0 mg/L and the “Minimum Inhibitory Concentration (MIC)” value [8] was 25 mg/L.
